Patent US8513258B2, “Cinnamoyl-piperazine derivatives and their use as par-1 antagonists” (Pierre Fabre Medicament, priority 2006, dated 2013)

Each molecule was assayed against T1, PAR-1 receptor (Cricetulus griseus, UniProt A0A8C2QJ57) (assay: Antagonism of SFLLR-induced calcium release in CHO cells (FLIPR, Fluo-3AM)). Settings: agonist SFLLR-NH2, Arunlakshana and Schild method from EC50 shifts at three antagonist concentrations.
T1 construct: Chinese hamster ovarian (CHO) cells constituently express PAR-1 receptor; endogenous in cells; host or cells: CHO cells
T1 sequence (A0A8C2QJ57 22-428): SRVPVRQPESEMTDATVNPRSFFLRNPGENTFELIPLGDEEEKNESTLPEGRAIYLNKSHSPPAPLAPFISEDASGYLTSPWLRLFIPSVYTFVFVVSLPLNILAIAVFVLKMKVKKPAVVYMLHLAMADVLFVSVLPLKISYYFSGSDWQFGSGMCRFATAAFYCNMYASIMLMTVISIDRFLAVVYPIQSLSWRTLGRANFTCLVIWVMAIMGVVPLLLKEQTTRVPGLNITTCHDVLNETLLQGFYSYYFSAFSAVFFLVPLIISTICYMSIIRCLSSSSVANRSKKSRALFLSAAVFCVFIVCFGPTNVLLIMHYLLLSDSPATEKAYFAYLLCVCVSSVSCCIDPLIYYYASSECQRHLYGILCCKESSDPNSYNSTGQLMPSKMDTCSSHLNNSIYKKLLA
Type: cell-based, Chinese hamster
Method: In a variety of cell types, activation of PAR-1 receptors by the SFLLR peptide (a selective PAR-1 agonist) triggers an intracellular signal cascade leading to the release of calcium by the endoplasmic reticulum. Chinese hamster ovarian (CHO) cells constituently express PAR-1 receptor. In this cell line, the release of calcium consecutive to receptor activation by SFLLR is measured by a fluorometry technique (fluorometric imaging plate reader, or FLIPR) using a selective probe for calcium (Fluo-3AM). The emission of fluorescence is pharmacologically proportional to the efficiency of the PAR-1 agonist and to its concentration.
Culture medium: Ham's F-12 (Ham, R. G., Proc. Nat. Acad. Sci. 1965, 53: 288) supplemented with 10% fetal calf serum and […].
Fluorescent probe: Fluo-3AM (4 μM; Teflabs, Austin, Tex., USA)
Agonist: SFLLR-NH2 (Serine, phenylalanine, leucine, leucine, arginine).
Methods: CHO cells are inoculated in 96-well plates (60,000 cells per well) in the presence of 200 μl of culture medium for 24 hours. The cells are incubated with the calcium fluorescent probe for 1 hour at 37° C. The cells are then washed 10 minutes before the signal is measured. PAR-1 antagonist is then injected (0.01 μM to 10 μM). The plates are placed in the FLIPR (Molecular Devices, UK) to measure calcium fluorescence at two wavelengths (488 nm and 540 nm: Sullivan et al., Calcium Signaling Protocols 1999, 125-136). Measurements are taken for 5 min before the antagonist is added and for 10 min following its administration. Maximum fluorescence minus baseline fluorescence is measured in 4 different wells. The test is carried out in duplicate. Under these conditions, the derivatives of the present invention were identified as PAR-1 receptor antagonists (antagonism>60% of the calcium signal at 10 μM). The dose-response curves (0.01 μM to 32 μM) obtained with the SFLLR agonist allowed determination of the effective concentration inducing 50% of the maximum effect (EC50). The strengths (pA2) of some of the PAR-1 antagonists described in the present invention were calculated using the method of Arunlakshana and Schild (Brit. J. Pharmacol., 1959, 14: 48-58) from the EC50 shifts observed at three concentrations.

| Structure (SMILES) | pA2 |
| --- | --- |
| O=C(C=Cc1ccccc1Br)N1CCN(Cc2ccc(F)cc2)CC1 [Example 3, 3-(2-Bromo-phenyl)-1-[4-(4-fluoro-benzyl)-piperazin-1-yl]-propenone] | 6.36 |
| O=C(C=Cc1c(F)cccc1F)N1CCN(Cc2ccc(F)c(F)c2)CC1 [Example 8, 1-[4-(3,4-Difluoro-benzyl)-piperazin-1-yl]-3-(2,6-difluoro-phenyl)-propenone] | 6.32 |
| Cc1cccc(CN2CCN(C(=O)C=Cc3c(F)cccc3F)CC2)c1 [Example 10, 3-(2,6-Difluoro-phenyl)-1-[4-(3-methyl-benzyl)-piperazin-1-yl]-propenone] | 6.46 |
| Cc1ccc(CN2CCN(C(=O)C=Cc3ccccc3Cl)CC2)cc1 [Example 4, 3-(2-Chloro-phenyl)-1-[4-(4-methyl-benzyl)-piperazin-1-yl]-propenone] | 6.05 |
| O=C(C=Cc1ccccc1F)N1CCN(Cc2ccc(F)cc2)CC1 [Example 2, 1-[4-(4-Fluoro-benzyl)-piperazin-1-yl]-3-(2-fluoro-phenyl)-propenone] | 6.50 |

Continued, values first:

| pA2 | Structure (SMILES) |
| --- | --- |
| 6.98 | O=C(C=Cc1ccccc1[N+](=O)[O-])N1CCN(Cc2ccc(F)cc2)CC1 [Example 29, 1-[4-(4-Fluoro-benzyl)-piperazin-1-yl]-3-(2-nitro-phenyl)-propenone] |
| 6.39 | O=C(C=Cc1ccccc1Cl)N1CCN(Cc2ccccc2F)CC1 [Example 15, 3-(2-Chloro-phenyl)-1-[4-(2-fluoro-benzyl)-piperazin-1-yl]-propenone] |

Same assay, conditions: agonist SFLLR-NH2, Arunlakshana and Schild method from EC50 shifts at three antagonist concentrations, read-out: pA2 (converted)

| Kb | Structure (SMILES) |
| --- | --- |
| 166 nM | O=C(/C=C/c1ccccc1[N+](=O)[O-])N1CCN(CC2CCCCC2)CC1 [Example 25, 1-(4-Cyclohexylmethyl-piperazin-1-yl)-3-(2-nitro-phenyl)-propenone] |
| 759 nM | O=C(/C=C/c1ccccc1Cl)N1CCN(CC2CCCCC2)CC1 [Example 28, 3-(2-Chloro-phenyl)-1-(4-cyclohexylmethyl-piperazin-1-yl)-] |

| Structure (SMILES) | Kb |
| --- | --- |
| O=C(/C=C/c1ccccc1Cl)N1CCN(Cc2ccc(F)cc2)CC1 [Example 1, 3-(2-Chloro-phenyl)-1-[4-(4-fluoro-benzyl)-piperazin-1-yl]-propenone] | 380 nM |
